Laboratory results as given in patent publication US20230265151A1, “GIP/GLP1 CO-AGONIST COMPOUNDS” (priority 2020, published 2023).
Read-outs that look alike come from different tables or passages of the source.

What was measured:
[1] = biological target: T1, hGCGR (Homo sapiens, UniProt P47871); test: Functional cAMP formation (HTRF) in HEK-293 clonal cells expressing hGCGR, 0.1% bovine casein, without or with 1.0% human serum albumin; format: cell-based; conditions: read-out: hGCGR EC50, nM (SEM, n)
T1 construct: expressed in transfected cells
T1 sequence (P47871 26-477): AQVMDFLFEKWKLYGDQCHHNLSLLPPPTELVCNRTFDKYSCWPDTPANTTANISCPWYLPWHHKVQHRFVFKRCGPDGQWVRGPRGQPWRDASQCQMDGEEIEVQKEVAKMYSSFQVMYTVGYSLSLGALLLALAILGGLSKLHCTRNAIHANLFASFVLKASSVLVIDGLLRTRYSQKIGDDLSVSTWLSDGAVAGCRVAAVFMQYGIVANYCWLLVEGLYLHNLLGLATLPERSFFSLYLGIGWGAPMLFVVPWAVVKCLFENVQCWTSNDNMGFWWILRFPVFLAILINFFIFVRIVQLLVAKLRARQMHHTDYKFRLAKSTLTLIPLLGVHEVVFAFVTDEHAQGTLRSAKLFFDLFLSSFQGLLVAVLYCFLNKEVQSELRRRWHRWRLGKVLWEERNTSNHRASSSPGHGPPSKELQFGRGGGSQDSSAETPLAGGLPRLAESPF
Outline: (§1)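 Cells were stimulated with peptide for 30 min at 37° C, then lysed in buffer carrying cAMP-d2 and anti-cAMP Eu3+-cryptate for a competitive HTRF read after at least 60 min at room temperature. The 665/620 nm ratio was converted to nM cAMP against a standard curve.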

[2] = biological target: T2, human GLP-1 receptor (hGLP-1R) (Homo sapiens, UniProt P43220); test: [125I]-GLP-1 binding, SPA with membranes of HEK293 cells expressing hGLP-1R; conditions: human GLP-1R; geometric mean (SEM, n); read-out: Binding Affinity Ki, nM (SEM, n) hGLP-1R
T2 construct: expressed in transfected cells; crude membranes
T2 sequence (P43220 24-463): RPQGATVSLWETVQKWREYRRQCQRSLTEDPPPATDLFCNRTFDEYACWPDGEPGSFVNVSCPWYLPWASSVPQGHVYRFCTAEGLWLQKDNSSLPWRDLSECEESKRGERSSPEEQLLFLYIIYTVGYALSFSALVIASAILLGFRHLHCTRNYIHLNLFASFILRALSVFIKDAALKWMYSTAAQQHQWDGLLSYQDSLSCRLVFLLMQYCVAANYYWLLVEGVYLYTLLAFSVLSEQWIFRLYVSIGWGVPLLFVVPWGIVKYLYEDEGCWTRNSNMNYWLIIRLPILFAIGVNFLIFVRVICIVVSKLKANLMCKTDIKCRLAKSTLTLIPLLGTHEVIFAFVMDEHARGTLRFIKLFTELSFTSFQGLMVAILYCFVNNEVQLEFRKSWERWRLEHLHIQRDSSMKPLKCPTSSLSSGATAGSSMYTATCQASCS

[3] = biological target: T3, hGIPR (Homo sapiens, UniProt P48546); test: Functional cAMP formation (HTRF) in HEK-293 clonal cells expressing hGIPR, 0.1% bovine casein, without or with 1.0% human serum albumin; format: cell-based; conditions: for Emax: read-out: hGIPR Emax, % ± SEM; for EC50: geometric mean, read-out: hGIPR EC50, nM (SEM, n)
T3 construct: expressed in transfected cells
T3 sequence (P48546 22-466): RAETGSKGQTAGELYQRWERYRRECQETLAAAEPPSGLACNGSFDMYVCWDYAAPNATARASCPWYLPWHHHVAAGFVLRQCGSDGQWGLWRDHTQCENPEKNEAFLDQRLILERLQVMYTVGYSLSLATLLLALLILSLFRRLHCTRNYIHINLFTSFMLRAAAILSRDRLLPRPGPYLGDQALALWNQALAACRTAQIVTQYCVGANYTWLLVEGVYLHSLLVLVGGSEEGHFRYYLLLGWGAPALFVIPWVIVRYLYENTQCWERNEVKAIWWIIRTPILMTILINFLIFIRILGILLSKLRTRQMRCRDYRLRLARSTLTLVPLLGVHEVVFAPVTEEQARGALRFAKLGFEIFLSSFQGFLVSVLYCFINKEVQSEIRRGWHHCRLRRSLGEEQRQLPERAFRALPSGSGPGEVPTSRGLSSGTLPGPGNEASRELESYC
Outline: as §1

[4] = biological target: hGLP-1R (Homo sapiens, UniProt P43220); test: Functional cAMP formation (HTRF) in HEK-293 clonal cells expressing hGLP-1R, 0.1% bovine casein, without or with 1.0% human serum albumin; format: cell-based; set-up: expressed in transfected cells; conditions: 37° C.; for Emax: read-out: hGLP-1R Emax, % ± SEM; for EC50: geometric mean, read-out: hGLP-1R EC50, nM (SEM, n)
Chain of hGLP-1R (P43220 24-463): as the sequence (P43220 24-463) above
Outline: as §1

[5] = cAMP, 37° C., 0.1% bovine casein (no human serum albumin), geometric mean
[6] = cAMP, 37° C., 0.1% bovine casein and 1.0% human serum albumin, geometric mean (SEM, n)
[7] = HEK293, cAMP, 37° C., 0.1% bovine casein and 1.0% human serum albumin, percent of maximal response to GIP(1-42)NH2
[8] = cAMP, 37° C., 0.1% bovine casein (no human serum albumin)
[9] = HEK293, cAMP, 0.1% bovine casein and 1.0% human serum albumin, percent of maximal response to GLP-1(7-36)NH2
[10] = HEK293, cAMP, 0.1% bovine casein, percent of maximal response to GLP-1(7-36)NH2, arithmetic mean
[11] = cAMP, 0.1% bovine casein (no human serum albumin)
[12] = 0.1% bovine casein and 1.0% human serum albumin, 37° C., geometric mean
[13] = cAMP, incubated at 37° C., 0.1% bovine casein (no human serum albumin), geometric mean

In the case of `CCCCCCCCCCCC(=O)N[C@@H](CCC(=O)NCCOCCOCC(=O)NCCOCCOCC(=O)NCCOCCOCC(=O)NCCCC[C@H](NC(=O)[C@H](CCCN)NC(=O)[C@H](CC(=O)O)NC(=O)[C@H](CC(C)C)NC(=O)[C@](C)(CC(C)C)NC(=O)[C@@H](NC(=O)C(C)(C)NC(=O)[C@H](CCCCNC(=O)COCCOCCNC(=O)COCCOCCNC(=O)COCCOCCNC(=O)CC[C@H](NC(=O)CCCCCCCCCCC)C(=O)O)NC(=O)[C@H](CC(=O)O)NC(=O)[C@H](CO)NC(=O)[C@@H](NC(=O)[C@](C)(Cc1ccccc1F)NC(=O)[C@@H](NC(=O)CNC(=O)[C@H](CCC(=O)O)NC(=O)C(C)(C)NC(=O)[C@@H](N)Cc1ccc(O)cc1)[C@@H](C)O)[C@@H](C)O)[C@@H](C)CC)C(=O)N[C@@H](C)C(=O)N[C@@H](CCC(N)=O)C(=O)NC(C)(C)C(=O)N[C@@H](CCC(=O)O)C(=O)N[C@@](C)(Cc1ccccc1)C(=O)N[C@H](C(=O)N[C@H](CCC(=O)O)C(=O)N[C@@](C)(Cc1ccc(O)cc1)C(=O)N[C@@H](CC(C)C)C(=O)N[C@H](C(=O)N[C@@H](CCC(=O)O)C(=O)NCC(=O)NCC(=O)N1CCC[C@H]1C(=O)N[C@@H](CO)C(=O)N[C@@H](CO)C(=O)NCC(=O)N[C@@H](C)C(=O)N1CCC[C@H]1C(=O)N1CCC[C@H]1C(=O)N1CCC[C@H]1C(=O)N[C@@H](CO)C(N)=O)[C@@H](C)CC)[C@@H](C)CC)C(=O)O` [Example 436], the EC50 [1, 5] is reported as over 9950 nM, the EC50 [1, 6] is reported as over 9950 nM and the Ki [2] is reported as 0.412 nM. It also gave an Emax [3, 7] of 96%, an EC50 [3, 8] of 0.00714 nM and an Emax [4, 9] of 100%. For the same compound, the Emax [4, 10] was 98.9% and the EC50 [4, 11] was 0.102 nM.

`CCCCCCCCCCCCCCCC(=O)N[C@@H](CCC(=O)NCCOCCOCC(=O)NCCOCCOCC(=O)NCCCC[C@H](NC(=O)[C@H](CCCN)NC(=O)[C@H](CC(=O)O)NC(=O)[C@H](CC(C)C)NC(=O)[C@](C)(CC(C)C)NC(=O)[C@@H](NC(=O)[C@H](CO)NC(=O)[C@H](Cc1ccncc1)NC(=O)[C@H](CC(=O)O)NC(=O)[C@H](CO)NC(=O)[C@@H](NC(=O)[C@](C)(Cc1ccccc1F)NC(=O)[C@@H](NC(=O)CNC(=O)[C@H](CCC(=O)O)NC(=O)C(C)(C)NC(=O)[C@@H](N)Cc1ccc(O)cc1)[C@@H](C)O)[C@@H](C)O)[C@@H](C)CC)C(=O)N[C@@H](C)C(=O)N[C@@H](CCC(N)=O)C(=O)NC(C)(C)C(=O)N[C@@H](CCCCNC(=O)COCCOCCNC(=O)COCCOCCNC(=O)CC[C@H](NC(=O)CCCCCCCCCCCCCCC)C(=O)O)C(=O)N[C@@H](Cc1ccccc1)C(=O)N[C@H](C(=O)N[C@H](CCC(=O)O)C(=O)N[C@@](C)(Cc1ccc(O)cc1)C(=O)N[C@@H](CC(C)C)C(=O)N[C@H](C(=O)N[C@@H](CCC(=O)O)C(=O)NCC(=O)NCC(=O)N1CCC[C@H]1C(=O)N[C@@H](CO)C(=O)N[C@@H](CO)C(=O)NCC(=O)N[C@@H](C)C(=O)N1CCC[C@H]1C(=O)N1CCC[C@H]1C(=O)N1CCC[C@H]1C(=O)N[C@@H](CO)C(N)=O)[C@@H](C)CC)[C@@H](C)CC)C(=O)O` [Example 21] gave an EC50 [1, 12] of over 9950 nM, an EC50 [1, 13] of over 9950 nM and a Ki [2] of 0.246 nM. For the same compound, the EC50 ([3]; 0.1% bovine casein and 1.0% human serum albumin, 37° C.) was 0.302 nM and the EC50 ([4]; 0.1% bovine casein and 1.0% human serum albumin) was 0.806 nM.

Work on `CC[C@H](C)[C@H](NC(=O)[C@H](CC(C)C)NC(=O)[C@](C)(Cc1ccc(O)cc1)NC(=O)[C@@H](CCC(=O)O)NC(=O)[C@@H](NC(=O)[C@H](Cc1ccccc1)NC(=O)[C@H](CCC(=O)O)NC(=O)C(C)(C)NC(=O)[C@H](CCC(N)=O)NC(=O)[C@H](C)NC(=O)[C@H](CCCCNC(=O)COCCOCCNC(=O)COCCOCCNC(=O)CC[C@H](NC(=O)CCCCCCCCCCCCC(=O)O)C(=O)O)NC(=O)[C@H](CCCN)NC(=O)[C@H](CC(=O)O)NC(=O)[C@H](CC(C)C)NC(=O)[C@](C)(CC(C)C)NC(=O)[C@@H](NC(=O)[C@](C)(CO)NC(=O)[C@H](Cc1ccc(O)cc1)NC(=O)[C@H](CC(=O)O)NC(=O)[C@H](CO)NC(=O)[C@@H](NC(=O)[C@](C)(Cc1ccccc1F)NC(=O)[C@@H](NC(=O)CNC(=O)[C@H](CCC(=O)O)NC(=O)C(C)(C)NC(=O)[C@@H](N)Cc1ccc(O)cc1)[C@@H](C)O)[C@@H](C)O)[C@@H](C)CC)[C@@H](C)CC)C(=O)N[C@@H](CCC(=O)O)C(=O)NCC(=O)NCC(=O)N[C@@H](CCCCNC(=O)COCCOCCNC(=O)COCCOCCNC(=O)CC[C@H](NC(=O)CCCCCCCCCCCCC(=O)O)C(=O)O)C(=O)N[C@@H](CO)C(=O)N[C@@H](CO)C(=O)NCC(=O)N[C@@H](C)C(=O)N1CCC[C@H]1C(=O)N1CCC[C@H]1C(=O)N1CCC[C@H]1C(=O)N[C@@H](CO)C(N)=O` [Example 49] yielded an EC50 [1, 12] of over 9950 nM, an EC50 [1, 13] of over 9950 nM and a Ki [2] of 1.21 nM. It also gave an Emax ([3]; HEK293, 0.1% bovine casein and 1.0% human serum albumin, 37° C., percent of maximal response to GIP(1-42)NH2) of 92.4 ± 4.07%, an Emax ([3]; HEK293, percent of maximal response to GIP(1-42)NH2, 37° C., 0.1% bovine casein, arithmetic mean) of 91 ± 1.7% and an EC50 ([3]; cAMP, incubated at 37° C., 0.1% bovine casein (no human serum albumin)) of 0.0205 nM. It also gave an Emax ([4]; HEK293, percent of maximal response to GLP-1(7-36)NH2, 0.1% bovine casein, arithmetic mean) of 97.3 ± 5.46%.

Compound `CCCCCCCCCCCC(=O)N[C@@H](CCC(=O)NCCOCCOCC(=O)NCCOCCOCC(=O)NCCOCCOCC(=O)NCCCC[C@H](NC(=O)[C@H](CO)NC(=O)[C@@H]1CCCN1C(=O)[C@@H]1CCCN1C(=O)[C@@H]1CCCN1C(=O)[C@H](C)NC(=O)CNC(=O)[C@H](CO)NC(=O)[C@H](CO)NC(=O)[C@@H]1CCCN1C(=O)CNC(=O)CNC(=O)[C@H](CCC(=O)O)NC(=O)[C@@H](NC(=O)[C@H](CC(C)C)NC(=O)[C@](C)(Cc1ccc(O)cc1)NC(=O)[C@@H](CCC(=O)O)NC(=O)[C@@H](NC(=O)[C@H](Cc1ccccc1)NC(=O)[C@H](CCCN)NC(=O)C(C)(C)NC(=O)[C@H](CCC(N)=O)NC(=O)[C@H](C)NC(=O)[C@H](CCCCNC(=O)COCCOCCNC(=O)COCCOCCNC(=O)COCCOCCNC(=O)CC[C@H](NC(=O)CCCCCCCCCCC)C(=O)O)NC(=O)[C@H](CCCN)NC(=O)[C@H](CC(=O)O)NC(=O)[C@H](CC(C)C)NC(=O)[C@](C)(CC(C)C)NC(=O)[C@@H](NC(=O)C(C)(C)NC(=O)[C@H](Cc1ccncc1)NC(=O)[C@H](CC(=O)O)NC(=O)[C@H](CO)NC(=O)[C@@H](NC(=O)[C@](C)(Cc1ccccc1F)NC(=O)[C@@H](NC(=O)CNC(=O)[C@H](CCC(=O)O)NC(=O)C(C)(C)NC(=O)[C@@H](N)Cc1ccc(O)cc1)[C@@H](C)O)[C@@H](C)O)[C@@H](C)CC)[C@@H](C)CC)[C@@H](C)CC)C(N)=O)C(=O)O` [Example 435] has an EC50 [1, 5] of over 9950 nM, an EC50 [1, 6] of over 9950 nM and a Ki [2] of 0.122 nM. For the same compound, the Emax [3, 7] was 98.7%, the EC50 [3, 8] was 0.00517 nM and the Emax [4, 9] was 97.8%. It also gave an Emax [4, 10] of 111% and an EC50 [4, 11] of 0.0527 nM.
